Results on five compounds are retold here after article PMC4800991 (Molecular pharmaceutics, 2015).

Holding throughout (type): cell-based
Experiment [1] concerns the target T1, human thiamine transporter 2 (hTHTR-2) (Homo sapiens, UniProt Q9BZV2).
T1 sequence (Q9BZV2 1-496): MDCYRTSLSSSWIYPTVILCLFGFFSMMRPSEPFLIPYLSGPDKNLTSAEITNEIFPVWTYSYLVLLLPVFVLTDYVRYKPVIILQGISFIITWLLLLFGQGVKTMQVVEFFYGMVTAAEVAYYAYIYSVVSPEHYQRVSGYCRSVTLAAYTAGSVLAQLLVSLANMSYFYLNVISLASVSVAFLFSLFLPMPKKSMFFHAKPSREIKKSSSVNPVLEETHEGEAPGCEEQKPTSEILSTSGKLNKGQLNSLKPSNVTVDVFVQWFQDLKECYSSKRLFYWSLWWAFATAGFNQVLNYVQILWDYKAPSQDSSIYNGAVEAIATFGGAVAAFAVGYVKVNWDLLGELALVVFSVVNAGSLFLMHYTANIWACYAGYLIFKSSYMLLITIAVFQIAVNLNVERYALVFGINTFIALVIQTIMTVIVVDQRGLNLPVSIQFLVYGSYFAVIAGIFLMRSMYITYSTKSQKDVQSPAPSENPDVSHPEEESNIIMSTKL
The experiment can be described thus: [3H]MPP+ uptake in HEK-hTHTR-2 cells with and without fedratinib.

The target of experiment [2] is T1, human thiamine transporter 2 (hTHTR-2). The experiment can be described thus: saturable […]metformin uptake.
Experiment [3] has the same target. The experiment can be described thus: inhibition of [3H]thiamine uptake in HEK-hTHTR-2 cells.
Experiment [4] has the same target. Put plainly: inhibition of [3H]thiamine and […]metformin uptake in HEK-hTHTR-2 cells at […].
Experiment [5] shares this target. The experiment can be described thus: saturable [3H]thiamine uptake.

Molecules are shown by their SMILES.

For `C[n+]1ccc(-c2ccccc2)cc1` [MPP+, 1-methyl-4-phenylpyridinium], the “[3H]MPP+ uptake in HEK-hTHTR-2 cells with and without fedratinib” value in experiment [1] is 1-methyl-4-phenylpyridinium (MPP^+) and the histamine H2-receptor antagonist famotidine were substrates of hTHTR-2. What is called IC50 is the point on the concentration scale where inhibition reaches its midpoint. Low values mean greater potency, high ones weaker potency. Turning to `CN(C)C(=N)N=C(N)N` [metformin, 1,1-dimethylbiguanide], it took 680 ± 140 µM to reach half-maximal inhibition in experiment [2] (IC50). In experiment [3], `[H]/N=C(/N)N/C(=N/[H])NCCc1ccccc1` [phenformin] returned a concentration for half-maximal inhibition (IC50) of 244 ± 28.4 µM. Take `Cc1ncc(C[n+]2cccc(CCO)c2C)c(N)n1` [pyrithiamine]: the “inhibition of [3H]thiamine and [14C]metformin uptake in HEK-hTHTR-2 cells at 200” value in experiment [4] is “antithiamine analogues (amprolium and pyrithiamine) and prescription drugs (chloroquine, verapamil, and famotidine) were shown to be inhibitors”.

Turning to `Cc1ncc(C[n+]2csc(CCO)c2C)c(N)n1` [thiamine], the IC50 in experiment [5] is 1.03 ± 0.12 µM.
